Each structure is given as a SMILES string. Like-named read-outs stand apart in the source and are kept apart here. Peptide text beside a SMILES is read from it.

The target in one data set is T1, SLC35E4 (Homo sapiens, UniProt Q6ICL7).
T1 sequence (Q6ICL7 1-350): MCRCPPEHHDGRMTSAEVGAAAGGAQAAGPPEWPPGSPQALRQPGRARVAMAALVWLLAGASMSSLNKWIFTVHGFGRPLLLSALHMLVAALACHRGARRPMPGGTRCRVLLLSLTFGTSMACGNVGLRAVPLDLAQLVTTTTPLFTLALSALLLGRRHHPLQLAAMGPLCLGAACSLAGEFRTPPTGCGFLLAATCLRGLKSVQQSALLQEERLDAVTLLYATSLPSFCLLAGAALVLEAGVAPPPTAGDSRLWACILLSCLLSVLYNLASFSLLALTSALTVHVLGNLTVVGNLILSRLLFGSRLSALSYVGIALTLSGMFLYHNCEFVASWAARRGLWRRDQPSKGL
The experiment in a line: Uptake ratio screen, SLC35E4-overexpressing HEK293 over empty vector cells. It counts as cell-based. Particulars: 2.5 μM, 2 min. Further details: by amplifying the entire gene-of-interest within the HEK293 genome via a long-range PCR. The method, then: (§1) Typically discussed substrates of the proton organic-cation antiporter ([14]) are highlighted in dark green in Figure 1.
(§2) In preparation for transport experiments, 24-well plates were pre-coated with poly-D-lysine (Sigma-Aldrich) and 300,000 cells were plated per well and incubated for 48 h. Firstly, the 24-well plate was placed on a heating plate at 37 °C, and the cells were washed with 37 °C HBSS^+ buffer (Hank’s balanced salt solution supplemented with 10 mM Hepes and adjusted to pH 7.4; Thermo Fisher Scientific). The substance-of-interest, which was diluted in 37 °C HBSS^+ to a desired concentration, was added to the cells for exactly 2 min. […] The uptake was stopped with ice-cold HBSS^+, and the 24-well plate was removed from the heating plate. The cells were washed twice with the cold HBSS^+ before they were lysed for 15 min with 80% (v/v) acetonitrile containing the respective internal standard for mass spectrometry. For variations in seeded cell numbers between the cell lines, several wells were lysed in RIPA buffer and used for total protein quantification using a bicinchoninic assay ([74]) and bovine serum albumin as calibration.
(§3) The intracellular drug concentrations after transport experiments were analyzed by high-performance liquid chromatography coupled to tandem mass spectrometry analysis. The HPLC consisted of a Shimadzu Nexera HPLC System with a SIL-30AC autosampler, a LC-30AD pump, a CTO-20AC column oven, and a CBM-20A controller (Shimadzu). The reverse-phase chromatography of compounds was accomplished with a Brownlee SPP RP-Amide column with 4.6 × 100 mm inner dimensions, a particle size of 2.7 μm, and a preceding Phenomenex C-18 guard column. […] After separation, the detection of substances was performed with an API 4000 tandem mass spectrometer (AB SCIEX, https://sciex.com/support/software-support/software-downloads), followed by quantification of results with the Analyst software (AB SCIEX, version 1.6.2). […]
(§4) Transport-mediated net uptake was determined as fold-increase of transporter-overexpressing cells over empty vector–transfected control cells.

Data set [1] addresses T2, SLC35G3 (Homo sapiens, UniProt Q8N808). Particulars: ratio of Vmax over KM.
A further data set deals with T3, SLC22A15 (Homo sapiens, UniProt Q8IZD6).
T3 construct: by amplifying the entire gene-of-interest within the HEK293 genome via a long-range PCR
The experiment in a line: Uptake ratio screen, SLC22A15-overexpressing HEK293 over empty vector cells. The note with it: 2.5 μM (nicotine 10 μM), 2 min. The data set is classed as cell-based. The method, then: as §1, §2
(§5) The intracellular drug concentrations after transport experiments were analyzed by high-performance liquid chromatography coupled to tandem mass spectrometry analysis. The HPLC consisted of a Shimadzu Nexera HPLC System with a SIL-30AC autosampler, a LC-30AD pump, a CTO-20AC column oven, and a CBM-20A controller (Shimadzu). The reverse-phase chromatography of compounds was accomplished with a Brownlee SPP RP-Amide column with 4.6 × 100 mm inner dimensions, a particle size of 2.7 μm, and a preceding Phenomenex C-18 guard column. The mobile phase was composed of an organic additive with acetonitrile:methanol 6:1 (v/v) in total concentrations between 3% and 50% (v/v) and 0.1% (v/v) formic acid in the aqueous component of the eluent. During separation, the column oven was held at 40 °C and the mobile phase was maintained at a flow rate of 300 or 400 μl/min. After separation, the detection of substances was performed with an API 4000 tandem mass spectrometer (AB SCIEX, https://sciex.com/support/software-support/software-downloads), followed by quantification of results with the Analyst software (AB SCIEX, version 1.6.2). The composition of chromatographic conditions, as well as detailed mass spectrometric detection parameters, are listed in Table S5.
as §4

Data set [2] has as its target T2, SLC35G3. As to the kind of experiment: Uptake ratio screen, SLC35G3-overexpressing HEK293 over empty vector cells. The data set is classed as cell-based. Further details: by amplifying the entire gene-of-interest within the HEK293 genome via a long-range PCR.
The target in data set [3] is T2, SLC35G3.
The target in a further data set is SLC38A10 (Homo sapiens, UniProt Q9HBR0). The note with it: SLC38A10, HEK293, net uptake over empty vector cells.
The next data set deals with T4, SLC47A1 (Homo sapiens, UniProt Q96FL8).
T4 sequence (Q96FL8 1-570): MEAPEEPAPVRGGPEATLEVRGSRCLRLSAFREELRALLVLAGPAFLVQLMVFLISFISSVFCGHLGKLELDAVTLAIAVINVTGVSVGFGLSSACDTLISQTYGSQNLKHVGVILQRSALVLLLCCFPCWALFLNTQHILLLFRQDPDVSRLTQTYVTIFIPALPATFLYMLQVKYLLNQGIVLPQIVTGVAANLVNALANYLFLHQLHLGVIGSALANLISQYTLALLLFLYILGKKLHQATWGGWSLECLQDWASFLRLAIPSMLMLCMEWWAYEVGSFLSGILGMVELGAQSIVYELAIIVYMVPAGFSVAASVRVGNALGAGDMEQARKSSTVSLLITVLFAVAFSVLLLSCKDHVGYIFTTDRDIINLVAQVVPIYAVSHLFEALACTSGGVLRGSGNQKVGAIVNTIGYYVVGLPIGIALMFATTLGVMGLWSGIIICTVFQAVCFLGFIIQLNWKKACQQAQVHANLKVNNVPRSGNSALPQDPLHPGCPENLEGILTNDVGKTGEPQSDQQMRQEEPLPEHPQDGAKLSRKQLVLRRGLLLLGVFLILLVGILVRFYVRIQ
The experiment in a line: Uptake ratio screen, SLC47A1-overexpressing HEK293 over empty vector cells. The data set is classed as cell-based. The note with it: 2.5 μM, 2 min. As to the method: as §1, §2, §3, §4

Another data set addresses SLC47A2 (Homo sapiens, UniProt Q86VL8). As to the kind of experiment: Uptake ratio screen, SLC47A2-overexpressing HEK293 over empty vector cells. It counts as cell-based. Particulars: 2.5 μM, 2 min. The method, then: as §1, §2, §3, §4
In a further data set the target is T5, SLC35F5 (Homo sapiens, UniProt Q8WV83).
T5 sequence (Q8WV83 1-523): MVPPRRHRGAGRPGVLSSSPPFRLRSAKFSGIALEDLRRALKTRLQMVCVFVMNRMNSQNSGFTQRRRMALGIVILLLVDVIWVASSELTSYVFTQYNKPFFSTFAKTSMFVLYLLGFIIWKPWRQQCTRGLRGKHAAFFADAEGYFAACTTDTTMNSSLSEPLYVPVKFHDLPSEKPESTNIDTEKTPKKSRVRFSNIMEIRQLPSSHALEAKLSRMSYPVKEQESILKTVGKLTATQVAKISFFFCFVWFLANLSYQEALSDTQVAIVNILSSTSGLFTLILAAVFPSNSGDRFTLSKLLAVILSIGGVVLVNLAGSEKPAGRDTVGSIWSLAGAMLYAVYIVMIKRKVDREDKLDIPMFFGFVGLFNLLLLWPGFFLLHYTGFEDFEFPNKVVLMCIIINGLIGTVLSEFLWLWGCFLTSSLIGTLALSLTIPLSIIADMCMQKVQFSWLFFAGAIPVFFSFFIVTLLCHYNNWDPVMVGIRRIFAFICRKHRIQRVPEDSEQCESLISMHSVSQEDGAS
As to the kind of experiment: Uptake ratio screen, SLC35F5-overexpressing HEK293 over empty vector cells. The data set is classed as cell-based. Further details: by amplifying the entire gene-of-interest within the HEK293 genome via a long-range PCR. Particulars: 2.5 μM, 2 min. As to the method:
as §1, §2, §5, §4

The mark [4] stands for this setting: 2.5 μM substrate, 2 min, HEK293.

T3 sequence (Q8IZD6 whole entry): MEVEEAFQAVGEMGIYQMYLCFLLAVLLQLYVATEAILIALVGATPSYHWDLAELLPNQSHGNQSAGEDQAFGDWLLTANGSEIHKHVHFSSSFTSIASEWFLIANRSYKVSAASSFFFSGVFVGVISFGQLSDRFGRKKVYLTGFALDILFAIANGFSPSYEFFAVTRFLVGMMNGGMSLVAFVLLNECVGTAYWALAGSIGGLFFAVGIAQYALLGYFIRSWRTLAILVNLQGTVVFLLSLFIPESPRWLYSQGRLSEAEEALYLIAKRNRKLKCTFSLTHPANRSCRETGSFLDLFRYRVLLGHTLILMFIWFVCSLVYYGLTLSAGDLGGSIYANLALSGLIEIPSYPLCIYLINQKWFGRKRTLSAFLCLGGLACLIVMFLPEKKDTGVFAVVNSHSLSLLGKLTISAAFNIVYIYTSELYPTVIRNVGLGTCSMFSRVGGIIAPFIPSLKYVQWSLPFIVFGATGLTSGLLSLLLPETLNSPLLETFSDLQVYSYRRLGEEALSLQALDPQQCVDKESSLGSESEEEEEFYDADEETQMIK
T2 sequence (Q8N808 whole entry): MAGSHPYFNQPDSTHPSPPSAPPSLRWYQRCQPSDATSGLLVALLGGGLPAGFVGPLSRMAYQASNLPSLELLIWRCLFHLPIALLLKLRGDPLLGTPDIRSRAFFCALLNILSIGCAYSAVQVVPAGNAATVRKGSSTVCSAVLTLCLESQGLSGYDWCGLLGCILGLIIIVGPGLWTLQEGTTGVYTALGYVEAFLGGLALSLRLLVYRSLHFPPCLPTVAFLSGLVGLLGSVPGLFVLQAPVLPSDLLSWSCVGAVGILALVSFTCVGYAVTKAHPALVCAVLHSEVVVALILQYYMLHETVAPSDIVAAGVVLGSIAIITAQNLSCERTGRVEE
Sequence of SLC47A2 (Q86VL8 1-566 isoform Q86VL8-3): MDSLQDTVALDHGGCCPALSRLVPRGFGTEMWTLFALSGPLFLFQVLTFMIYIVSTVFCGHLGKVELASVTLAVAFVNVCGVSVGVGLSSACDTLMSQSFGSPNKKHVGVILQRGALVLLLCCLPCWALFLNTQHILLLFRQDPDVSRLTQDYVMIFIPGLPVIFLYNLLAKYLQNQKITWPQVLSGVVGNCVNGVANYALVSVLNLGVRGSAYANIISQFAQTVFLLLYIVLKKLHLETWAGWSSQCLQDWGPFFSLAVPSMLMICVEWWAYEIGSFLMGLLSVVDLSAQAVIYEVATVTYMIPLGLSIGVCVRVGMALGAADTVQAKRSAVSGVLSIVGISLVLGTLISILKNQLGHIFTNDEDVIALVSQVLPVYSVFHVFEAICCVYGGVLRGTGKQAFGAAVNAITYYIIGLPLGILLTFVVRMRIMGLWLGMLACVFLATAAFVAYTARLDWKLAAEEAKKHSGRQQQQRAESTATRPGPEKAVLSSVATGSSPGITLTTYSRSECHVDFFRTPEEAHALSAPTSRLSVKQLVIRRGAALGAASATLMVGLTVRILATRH
Sequence of SLC38A10 (Q9HBR0 whole entry): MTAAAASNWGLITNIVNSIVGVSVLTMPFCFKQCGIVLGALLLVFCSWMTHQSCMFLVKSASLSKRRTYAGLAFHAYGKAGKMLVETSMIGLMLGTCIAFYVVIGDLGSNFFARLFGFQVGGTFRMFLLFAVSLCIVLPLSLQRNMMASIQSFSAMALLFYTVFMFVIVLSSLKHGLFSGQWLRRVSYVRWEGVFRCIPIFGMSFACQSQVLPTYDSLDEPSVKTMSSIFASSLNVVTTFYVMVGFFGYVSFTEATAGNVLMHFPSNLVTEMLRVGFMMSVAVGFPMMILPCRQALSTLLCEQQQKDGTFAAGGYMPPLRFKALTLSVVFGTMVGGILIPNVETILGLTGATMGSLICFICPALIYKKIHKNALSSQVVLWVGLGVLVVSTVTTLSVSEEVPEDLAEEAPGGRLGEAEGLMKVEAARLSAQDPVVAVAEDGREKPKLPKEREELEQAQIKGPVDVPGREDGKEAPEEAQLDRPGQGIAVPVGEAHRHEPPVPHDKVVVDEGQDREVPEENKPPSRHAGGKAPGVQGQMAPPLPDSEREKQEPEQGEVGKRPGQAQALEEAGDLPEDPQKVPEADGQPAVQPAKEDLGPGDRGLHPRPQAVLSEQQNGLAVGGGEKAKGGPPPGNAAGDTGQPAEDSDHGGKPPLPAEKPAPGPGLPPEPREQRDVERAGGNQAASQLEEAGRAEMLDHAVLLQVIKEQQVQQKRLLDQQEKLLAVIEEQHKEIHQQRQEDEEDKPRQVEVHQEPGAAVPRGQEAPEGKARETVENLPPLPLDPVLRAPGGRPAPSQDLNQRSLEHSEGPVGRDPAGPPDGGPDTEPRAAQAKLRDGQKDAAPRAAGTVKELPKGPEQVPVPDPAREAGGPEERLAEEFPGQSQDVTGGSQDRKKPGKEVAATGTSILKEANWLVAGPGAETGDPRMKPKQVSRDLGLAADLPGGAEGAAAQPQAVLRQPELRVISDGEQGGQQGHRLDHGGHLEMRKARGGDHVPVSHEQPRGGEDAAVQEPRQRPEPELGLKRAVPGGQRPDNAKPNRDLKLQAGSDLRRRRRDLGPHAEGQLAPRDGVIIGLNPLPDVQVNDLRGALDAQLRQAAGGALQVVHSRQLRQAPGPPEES

For `CC(C)C[C@H](N)C(=O)O` [leucine], at SLC35E4, the “Uptake by SLC35E4 (in words)” value is listed as “minor”.
As for `CCOC(=O)C1(c2ccccc2)CCN(C)CC1` [Meperidine], at SLC35G3 [1], the “Clint (±SEM)” value is recorded as 4.60 (±4.78) μl × mg protein^-1 × min^-1. Also, the “Uptake by SLC22A15 (in words)” value at SLC22A15 was “significantly increased the uptake”.
Turning to `CCCNC(C)C(=O)Nc1c(C)csc1C(=O)OC` (centres unmarked) [Articaine], the “Uptake data for SLC35G3, mean value (fold-increase over empty vector control)” value at SLC35G3 [2] (setting [4]) amounted to 2.91. Further, the “Clint (±SEM)” value on SLC35G3 [3] was 2.04 (±2.24) μl × mg protein^-1 × min^-1.
For `CCCN1CCCC[C@H]1C(=O)Nc1c(C)cccc1C` [Ropivacaine] the same measures were 3.07 and 3.64 (±1.93) μl × mg protein^-1 × min^-1.
`CC(N)Cc1ccccc1` (centres unmarked) [Amphetamine]: on SLC35G3 [2] (setting [4]), the “Uptake data for SLC35G3, mean value (fold-increase over empty vector control)” value stood at 1.28. The “Vmax (±SEM)” value on SLC38A10 is recorded as 97.4 (±11.1) pmol × mg protein^-1 × min^-1.
As for `C[C@]12CC[C@@H]3c4ccc(OS(=O)(=O)O)cc4CC[C@H]3[C@@H]1CCC2=O` [estrone-3-sulfate], the “Uptake by SLC47A1 (MATE1) (in words)” value on SLC47A1 is reported as “confirmed to be transported”. Also, the “Uptake by SLC47A2 (MATE2K) (in words)” value at SLC47A2 is “confirmed to be transported”.
As to `CNC(C)Cc1ccc2c(c1)OCO2` (centres unmarked) [MDMA, 3,4-methylenedioxymethamphetamine], on SLC35G3 [2], the “Uptake data for SLC35G3, mean value (fold-increase over empty vector control)” value worked out at 1.58. For the same compound, the “Uptake by SLC35F5 (in words)” value at SLC35F5 is given as “highest uptake rates”. Besides, on SLC35G3 [1], the “Clint (±SEM)” value is 4.31 (±2.26) μl × mg protein^-1 × min^-1. In addition, the “Uptake by SLC22A15 (in words)” value at SLC22A15 is given as “significantly increased the uptake”.
Take `Nc1nc2c(ncn2COCCO)c(=O)[nH]1` [Acyclovir]: the “Uptake by SLC47A1 (MATE1) (in words)” value at SLC47A1 was “only transported by the MATEs”. Also, the “Uptake data for SLC35G3, mean value (fold-increase over empty vector control)” value on SLC35G3 [2] (setting [4]) was found to be 1.21. The “Uptake by SLC47A2 (MATE2K) (in words)” value on SLC47A2 is on record as “only transported by the MATEs”.
In the case of `C[N+](C)(C)CC(O)CC(=O)[O-]` (centres unmarked) [Carnitine-d9], the “Uptake data for SLC35G3, mean value (fold-increase over empty vector control)” value on SLC35G3 [2] (setting [4]) is listed as 1.05. For the same compound, the “Uptake by SLC22A15 (in words)” value at SLC22A15 is “did not measure significant uptake”.
On to `C[N+](C)(C)[C@@H](Cc1c[nH]c(=S)[nH]1)C(=O)[O-]` [Ergothionine], for which, at SLC35G3 [2] (setting [4]), the “Uptake data for SLC35G3, mean value (fold-increase over empty vector control)” value came to 1.67. Further, the “Uptake by SLC22A15 (in words)” value at SLC22A15 is on record as “did not measure significant uptake”.
Turning to `C[C@H]1c2cccc(O)c2C(=O)C2=C(O)[C@]3(O)C(=O)C(C(N)=O)=C(O)[C@@H](N(C)C)[C@@H]3[C@@H](O)[C@@H]21` [Doxycycline], the “Uptake data for SLC35G3, mean value (fold-increase over empty vector control)” value on SLC35G3 [2] (setting [4]) turned out to be 1.34.
For `CNCC[C@H](Oc1cccc2ccccc12)c1cccs1` [Duloxetine], the “Uptake data for SLC35G3, mean value (fold-increase over empty vector control)” value at SLC35G3 [2] is given as 1.26.
For the compound `CN[C@@H]1CCc2[nH]c3ccc(C(N)=O)cc3c2C1` [Frovatriptan (R-), Frovatriptan], the “Uptake data for SLC35G3, mean value (fold-increase over empty vector control)” value at SLC35G3 [2] (setting [4]) is on record as 1.06.
Still for that read-out and setting: next, `COCCOC(=O)C1=C(C)NC(C)=C(C(=O)OC(C)C)C1c1cccc([N+](=O)[O-])c1` (centres unmarked) [Nimodipine]: 1.26.
Same read-out and setting: next, `NC1Cc2cc3c(cc2C1)OCO3` [MDAI, 5,6-Methylenedioxy-2-aminoindane]: 1.71; `CNCC(c1ccc(OC)cc1)C1(O)CCCCC1` (centres unmarked) [N-Desmethylvenlafaxine]: 1.20; `COC(=O)[C@H](Cc1ccccc1)NC(=O)[C@@H](N)CC(=O)O` [Aspartame] (H-Asp-Phe-OMe): 0.92.
